Measurements reported in patent US20220313715A1, “PHARMACEUTICAL COMPOSITION, FOR PREVENTING OR TREATING HEPATIC FIBROSIS, COMPRISING 8-OHDG” (GIL MEDICAL CENTER, priority 2016, published 2022).

Key:
[1] = test system: hydroxyproline; experiment: Hydroxyproline level in liver tissue of bile duct ligation liver fibrosis animal model; assay type: in vivo, Sprague-Dawley rats; conditions: BDL rats, 8-OHdG 60 mg/kg/day for 3 weeks (Experimental Group 2) vs BDL only (Experimental Group 1); absorbance at 560 nm; FIG. 1
From the text: 250 g to 300 g male Sprague-Dawley rats were subject to bile duct ligation (BDL) and atresia of bile duct to prepare liver fibrosis animal models. […] Six of the animal models were laparotomized, and the proximal and distal bile ducts were ligated and then cut in the middle to separate the bile duct. The animal models were then sutured and allowed to recover to be used for Experimental Group 1. Six animal models treated in the same manner as experimental group 1 were sutured and administered with 8-OHdG in the amount of 60 mg/kg/day for 3 weeks to be used for Experimental Group 2. The animal models of each of the control and experimental groups were sutured and raised for 3 weeks, followed by taking blood and liver tissues therefrom to be used for subsequent experimental procedures.

[2] = test system: TGF-β; experiment: qPCR mRNA level of TGF-β in liver tissue of liver fibrosis animal model; assay type: in vivo, Sprague-Dawley rats; conditions: BDL rats, 60 mg/kg/day for 3 weeks vs Experimental Group 1, GAPDH internal control, FIG. 2a
From the text: (§1) 250 g to 300 g male Sprague-Dawley rats were subject to bile duct ligation (BDL) and atresia of bile duct to prepare liver fibrosis animal models. Six of the animal models were laparotomized, and the proximal and distal bile ducts were ligated and then cut in the middle to separate the bile duct. The animal models were then sutured and allowed to recover to be used for Experimental Group 1. Six animal models treated in the same manner as experimental group 1 were sutured and administered with 8-OHdG in the amount of 60 mg/kg/day for 3 weeks to be used for Experimental Group 2. The animal models of each of the control and experimental groups were sutured and raised for 3 weeks, followed by taking blood and liver tissues therefrom to be used for subsequent experimental procedures. […]

[3] = test system: TIMP-1; experiment: qPCR mRNA level of TIMP-1 in liver tissue of liver fibrosis animal model; assay type: in vivo, Sprague-Dawley rats; conditions: BDL rats, 60 mg/kg/day for 3 weeks vs Experimental Group 1, FIG. 2b
From the text: as §1

[4] = test system: Collagen Iα1; experiment: qPCR mRNA level of collagen in liver tissue of liver fibrosis animal model; assay type: in vivo, Sprague-Dawley rats; conditions: BDL rats, 60 mg/kg/day for 3 weeks vs Experimental Group 1, FIG. 2c
From the text: as §1

[5] = test system: α-SMA; experiment: qPCR mRNA level of α-SMA in liver tissue of liver fibrosis animal model; assay type: in vivo, Sprague-Dawley rats; conditions: BDL rats, 60 mg/kg/day for 3 weeks vs Experimental Group 1, FIG. 2d
From the text: as §1

[6] = test system: NOX1; experiment: qPCR mRNA level of NOX1 in liver tissue of liver fibrosis animal model; assay type: in vivo, Sprague-Dawley rats; conditions: BDL rats, 60 mg/kg/day for 3 weeks vs Experimental Group 1, FIG. 2e
From the text: as §1

[7] = test system: NOX2; experiment: qPCR mRNA level of NOX2 in liver tissue of liver fibrosis animal model; assay type: in vivo, Sprague-Dawley rats; conditions: BDL rats, 60 mg/kg/day for 3 weeks vs Experimental Group 1, FIG. 2f
From the text: as §1

[8] = test system: collagen; experiment: Picro Sirius Red staining of collagen in liver tissue of liver fibrosis animal model; assay type: in vivo, Sprague-Dawley rats; conditions: BDL rats, 60 mg/kg/day for 3 weeks vs Experimental Group 1; Picro Sirius Red stain, ImageJ; FIG. 3a
From the text: (§2) 250 g to 300 g male Sprague-Dawley rats were subject to bile duct ligation (BDL) and atresia of bile duct to prepare liver fibrosis animal models. Six of the animal models were laparotomized, and the proximal and distal bile ducts were ligated and then cut in the middle to separate the bile duct. The animal models were then sutured and allowed to recover to be used for Experimental Group 1. Six animal models treated in the same manner as experimental group 1 were sutured and administered with 8-OHdG in the amount of 60 mg/kg/day for 3 weeks to be used for Experimental Group 2. The animal models of each of the control and experimental groups were sutured and raised for 3 weeks, followed by taking blood and liver tissues therefrom to be used for subsequent experimental procedures.

[9] = test system: α-SMA; experiment: Western blot of α-SMA protein in liver tissue of liver fibrosis animal model; assay type: in vivo, Sprague-Dawley rats; conditions: BDL rats, 60 mg/kg/day for 3 weeks vs Experimental Group 1, GAPDH internal control, FIG. 3b
From the text: 250 g to 300 g male Sprague-Dawley rats were subject to bile duct ligation (BDL) and atresia of bile duct to prepare liver fibrosis animal models. Six of the animal models were laparotomized, and the proximal and distal bile ducts were ligated and then cut in the middle to separate the bile duct. The animal models were then sutured and allowed to recover to be used for Experimental Group 1. Six animal models treated in the same manner as experimental group 1 were sutured and administered with 8-OHdG in the amount of 60 mg/kg/day for 3 weeks to be used for Experimental Group 2. The animal models of each of the control and experimental groups were sutured and raised for 3 weeks, followed by taking blood and liver tissues therefrom to be used for subsequent experimental procedures. […] GAPDH protein was used as an internal control.

[10] = test system: NOX1; experiment: Immunofluorescent staining of NOX1 in liver tissue of liver fibrosis animal model; assay type: in vivo, Sprague-Dawley rats; conditions: BDL rats, 60 mg/kg/day for 3 weeks vs Experimental Group 1, FIG. 3c
From the text: as §2

[11] = test system: NOX2; experiment: Immunofluorescent staining of NOX2 in liver tissue of liver fibrosis animal model; assay type: in vivo, Sprague-Dawley rats; conditions: BDL rats, 60 mg/kg/day for 3 weeks vs Experimental Group 1, FIG. 3d
From the text: as §2

[12] = test system: α-SMA; experiment: Immunofluorescent staining of α-SMA (hepatic stellate cell activity index) in liver tissue of liver fibrosis animal model; assay type: in vivo, Sprague-Dawley rats; conditions: BDL rats, 60 mg/kg/day for 3 weeks vs Experimental Group 1; immunofluorescent co-staining with NOX1 (FIG. 3c) or NOX2 (FIG. 3d)
From the text: as §2

[13] = target: RAC1 (Homo sapiens, UniProt P63000); conditions: binds to RAC1-GTP through competition with GTP; leads to inhibition of activity of NOX complex; cited from earlier work

Nc1nc2c(nc(O)n2[C@H]2C[C@H](O)[C@@H](CO)O2)c(=O)[nH]1 [8-OHdG, 8-hydroxydeoxyguanosine]
reduced: level of hydroxyproline in the liver tissue [1] | mRNA level of TGF-β in the liver tissue [2] | mRNA level of TIMP-1 in the liver tissue [3] | mRNA level of collagen in the liver tissue [4] | mRNA level of α-SMA in the liver tissue [5] | mRNA level of NOX1 in the liver tissue [6] | mRNA level of NOX2 in the liver tissue [7] | protein level of collagen in the liver tissue [8] | protein level of α-SMA in the liver tissue [9] | protein level of NOX1 in the liver tissue [10] | protein level of NOX2 in the liver tissue [11] | protein level of α-SMA used as a hepatic stellate cell activity index [12]
inhibits: RAC1 activation [13]
